Measurements from ChEMBL document CHEMBL1133876, “alpha-Ketocarboxylic acid-based inhibitors of protein tyrosine phosphatases” (Bioorg Med Chem Lett, 2001).

Key:
[1] = target: Tyrosine-protein phosphatase YopH (Yersinia enterocolitica) (UniProt P15273); assay: Inhibitory activity against Yersinia Protein-tyrosine phosphatase YopH
[2] = target: Tyrosine-protein phosphatase YopH (Yersinia enterocolitica) (UniProt P15273); assay: as above; remark: listed apart in the source

Tyrosine-protein phosphatase YopH (Yersinia enterocolitica), sequence (P15273 whole entry, looked up): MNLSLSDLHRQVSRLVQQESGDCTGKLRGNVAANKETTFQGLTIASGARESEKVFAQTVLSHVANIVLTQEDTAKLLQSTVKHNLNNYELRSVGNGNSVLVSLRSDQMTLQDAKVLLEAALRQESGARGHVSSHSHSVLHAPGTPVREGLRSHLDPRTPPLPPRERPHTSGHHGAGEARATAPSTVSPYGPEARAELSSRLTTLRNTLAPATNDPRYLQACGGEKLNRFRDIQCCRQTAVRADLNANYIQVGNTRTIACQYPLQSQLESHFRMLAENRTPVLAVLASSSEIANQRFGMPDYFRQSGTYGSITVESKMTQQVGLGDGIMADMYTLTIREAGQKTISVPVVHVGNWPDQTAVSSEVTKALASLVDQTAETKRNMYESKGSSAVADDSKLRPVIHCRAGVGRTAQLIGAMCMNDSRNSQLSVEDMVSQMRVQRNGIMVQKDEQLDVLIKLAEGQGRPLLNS

Row | IC50 [1] | SMILES | Ki [2]
1 | 5.5 mM | O=C(O)[C@H](O)c1ccccc1 | –
2 | 0.95 mM | O=C(O)C(=O)c1cccs1 | –
3 | – | O=C(O)C(=O)c1ccco1 | 79 µM
4 | 1.5 mM | O=C(O)C(=O)c1ccccc1C(=O)O | –
5 | 1.7 mM | COc1ccc(C(=O)C(=O)O)cc1OC | –
6 | 3.3 mM | O=C(O)C(O)c1ccc2ccccc2c1 (stereo not drawn) | –
7 | 0.027 mM | O=C(O)C(O)c1ccco1 (stereo not drawn) | –
8 | 5.7 mM | COc1ccc(C(O)C(=O)O)cc1 (stereo not drawn) | –
9 | 2.3 mM | COC(=O)c1ccc(C(=O)C(=O)O)cc1 | –
10 | 4.9 mM | O=C(O)[C@@H](O)c1ccccc1 | –
11 | 0.79 mM | O=C(O)C(=O)c1c(F)c(F)c(F)c(F)c1F | –
12 | – | O=P(O)(O)C(F)(F)c1ccc2ccccc2c1 | 179 µM
13 | 2.7 mM | O=C(O)C(=O)c1ccc([N+](=O)[O-])cc1 | –
14 | 0.19 mM | O=C(O)C(=O)c1ccc2ccccc2c1 | –
15 | 3.5 mM | O=C(O)Cc1ccc2ccccc2c1 | –

Row | SMILES | IC50 [1] | Ki [2]
16 | COc1ccc(C(=O)C(=O)O)cc1 | 0.15 mM | –
17 | O=C(O)C(=O)c1c[nH]c2ccccc12 | 0.39 mM | –
18 | O=C(O)C(=O)c1ccccc1 [BENZOYL FORMIC ACID] | 2.7 mM | –
